Where “and” joins values, the source holds several entries; their conditions need not be identical. Identical values can stand only once.
target: JNK1 (Homo sapiens, UniProt P45983); assay: DELFIA kinase assay, JNK1; format: biochemical; conditions: DELFIA assay, 2 nM JNK1, 7 uM ATP, 10 min pre-incubation
Method: Assay DELFIA (Dissociation Enhanced Lanthanide Fluorescence Immuno-Assay) Assay:
Before initiation of kinase reactions, compounds were pre-incubated with the enzyme for 10 minutes. Pre-incubation reactions contained 50 mM HEPES pH 7.3, 10 mM MgCl2, 1 mM DTT, 75 mM NaCl, 1 mM EDTA, 1 mM EGTA, 0.01% CHAPS, 2 nM JNK1, 6 ug/mL biotinylated GST-ATF2, 0.1 mg/ml BSA, 5% DMSO and 0-100 μM compound in a total volume of 40 μL. After a 10 minute room temperature pre-incubation, 10 μL of 35 μM ATP was added to start the reaction (final concentration of ATP=7 uM). Reactions were incubated at room temperature for 30 minutes. A small aliquot (10 uL) was taken and quenched by adding into 190 uL of DELFIA Assay buffer containing 100 mM EDTA. The amount of phosphate transferred to biotinylated GST-ATF2 was measured using the Dissociation Enhanced Lanthanide Fluorescence Immuno-assay (DELFIA) from Perkin Elmer according to manufacturers protocol. Briefly, biotinylated GST-ATF2 was captured on streptavidin coated plates for 1 hour, washed twice, then incubated for 1 hour with a 1:1000 dilution of rabbit-anti-phospho-ATF2 antibody and a 1:3500 dilution of Europium-labeled anti-rabbit secondary antibody. Free antibody was removed with six washes, Europium was dissociated from the antibody, and Europium fluorescence was measured using an excitation wavelength of 340 nm and an emission wavelength of 615 nm. JNK2 and JNK3 kinase reactions were carried out similarly, with the exception that the final concentration of ATP was 4 uM and 2 uM, respectively.

Chain of JNK1 (P45983 whole entry, species assumed): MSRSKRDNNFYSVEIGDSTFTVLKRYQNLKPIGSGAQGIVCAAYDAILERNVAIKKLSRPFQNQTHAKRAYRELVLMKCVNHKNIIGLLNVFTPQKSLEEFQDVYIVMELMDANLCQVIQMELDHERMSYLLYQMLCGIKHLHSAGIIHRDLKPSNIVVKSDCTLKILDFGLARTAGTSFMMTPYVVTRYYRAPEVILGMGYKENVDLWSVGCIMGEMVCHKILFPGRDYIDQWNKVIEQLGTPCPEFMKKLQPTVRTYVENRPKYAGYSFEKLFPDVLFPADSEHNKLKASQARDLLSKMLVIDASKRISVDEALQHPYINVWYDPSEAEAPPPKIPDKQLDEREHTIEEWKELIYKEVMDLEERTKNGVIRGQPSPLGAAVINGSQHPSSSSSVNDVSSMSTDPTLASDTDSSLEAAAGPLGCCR

Compound	IC50
Cc1nc2ccc(-n3cc(CNC(=O)c4cccc(C(=O)NC(C)C)n4)cn3)cc2n1C(C)C [Compound 228]	0.008 µM
CC(C)NC(=O)c1cccc(C(=O)NCc2cnn(-c3ccc(S(=O)(=O)N(C)C)c(Cl)c3)c2)n1 [Compound 246]	0.004 µM
CC(C)NC(=O)c1cccc(C(=O)NCc2cnn(-c3ccc(S(=O)(=O)N4CCNCC4)c(Cl)c3)c2)n1 [Compound 248]	0.007 µM

same assay, conditions: DELFIA assay, 2 nM JNK1, 7 uM ATP, 10 min pre-incubation; second table; read-out: JNK 1 IC50

Compound	IC50
Cc1nc2ccc(-n3cc(CNC(=O)c4cccc(C(=O)NC(C)C)n4)cn3)cc2n1C(C)C [Compound 228]	0.008 µM
CC(C)NC(=O)c1cccc(C(=O)NCc2cnn(-c3ccc(S(N)(=O)=O)cc3)c2)n1 [Compound 241]	0.007 µM
CC(C)NC(=O)c1cccc(C(=O)NCc2cnn(-c3ccc(S(=O)(=O)N(C)C)c(Cl)c3)c2)n1 [Compound 246]	0.004 µM
CC(C)NC(=O)c1cccc(C(=O)NCc2cnn(-c3ccc(S(=O)(=O)N4CCNCC4)c(Cl)c3)c2)n1 [Compound 248]	0.007 µM

same assay, conditions: DELFIA, biotinylated GST-ATF2 substrate, 10 minute pre-incubation, final ATP 7 uM

Compound	IC50
Cc1nc2ccc(-n3cc(CNC(=O)c4cccc(C(=O)NC(C)C)n4)cn3)cc2n1C(C)C [Compound 228]	0.004 to 0.097 µM and 0.004 to 0.019 µM
CC(C)NC(=O)c1cccc(C(=O)NCc2cnn(-c3ccc4nc(C(F)(F)F)n(C)c4c3)c2)n1 [Compound 234]	0.004 to 0.019 µM and 0.004 to 0.097 µM
CC(C)NC(=O)c1cccc(C(=O)NCc2cnn(-c3ccc4nc(C(C)C)n(C)c4c3)c2)n1 [Compound 235]	0.004 to 0.019 µM and 0.004 to 0.097 µM
CC(C)NC(=O)c1cccc(C(=O)NCc2cnn(-c3ccc4nc(-c5cccnc5)n(C)c4c3)c2)n1 [Compound 238]	0.004 to 0.097 µM and 0.004 to 0.019 µM
CC(C)NC(=O)c1cccc(C(=O)NCc2cnn(-c3ccc(S(N)(=O)=O)cc3)c2)n1 [Compound 241]	0.004 to 0.097 µM and 0.004 to 0.019 µM
CNS(=O)(=O)c1ccc(-n2cc(CNC(=O)c3cccc(C(=O)NC(C)C)n3)cn2)cc1 [Compound 244]	0.004 to 0.019 µM and 0.004 to 0.097 µM
CC(C)NC(=O)c1cccc(C(=O)NCc2cnn(-c3ccc(S(=O)(=O)N4CCNCC4)cc3)c2)n1 [Compound 245]	0.004 to 0.019 µM and 0.004 to 0.097 µM
CC(C)NC(=O)c1cccc(C(=O)NCc2cnn(-c3ccc(S(=O)(=O)N(C)C)c(Cl)c3)c2)n1 [Compound 246]	0.004 to 0.019 µM and 0.004 µM and 0.004 to 0.097 µM
CC(C)NC(=O)c1cccc(C(=O)NCc2cnn(-c3ccc(S(=O)(=O)N4CCNCC4)c(Cl)c3)c2)n1 [Compound 248]	0.004 to 0.019 µM and 0.004 to 0.097 µM
Nc1nc2ccc(CNC(=O)c3cccc(Cl)n3)cc2s1 [Compound 261]	> 1 µM
Nc1nc2ccc(CNC(=O)c3cccc(NCc4ccccc4)n3)cc2s1 [Compound 263]	> 1 µM
COc1cccc(C(=O)NCc2ccc3nc(N)sc3c2)n1 [Compound 267]	> 1 µM
CSc1nccc(N2CCC(NC(=O)c3cccc(C(=O)NCc4ccc(S(C)(=O)=O)cc4)n3)CC2)n1 [Compound 274]	> 1 µM
CS(=O)(=O)c1ccc(CNC(=O)c2cccc(C(=O)NC3CCN(c4ccncc4)CC3)n2)cc1 [Compound 275]	1.03 to 10 µM and > 1 µM
CS(=O)(=O)c1ccc(CNC(=O)c2cccc(C(=O)NC3CCN(c4ccc5ccccc5n4)CC3)n2)cc1 [Compound 276]	> 1 µM
CC(C)NC(=O)c1cccc(-n2cc(I)cn2)n1 [Compound 287]	> 1 µM and 1.03 to 10 µM
O=C(Nc1cccnc1)c1cccc(-n2cc(I)cn2)n1 [Compound 288]	> 1 µM and 1.03 to 10 µM
O=C(NCc1cccnc1)c1cccc(-n2cc(I)cn2)n1 [Compound 289]	0.102 to 0.959 µM
Cc1nc2ccc(CNC(=O)c3cccc(-n4cc(I)cn4)n3)cc2[nH]1 [Compound 290]	0.102 to 0.959 µM
O=C(NCc1cnn(-c2ccccc2)c1)c1cccc(-n2cc(I)cn2)n1 [Compound 291]	0.102 to 0.959 µM
CS(=O)(=O)c1ccc(-n2cc(CNC(=O)c3cccc(-n4cccn4)n3)cn2)cc1 [Compound 293]	0.102 to 0.959 µM
CS(=O)(=O)c1ccc(-n2cc(CNC(=O)c3cccc(-n4cc(-c5cccc(F)c5)cn4)n3)cn2)cc1 [Compound 295]	0.102 to 0.959 µM
CS(=O)(=O)c1ccc(-n2cc(CNC(=O)c3cccc(-n4cc(-c5ccc(F)cc5)cn4)n3)cn2)cc1 [Compound 296]	0.102 to 0.959 µM
CC(C)(C)c1nnc(-c2cccc(C(=O)NCc3cnn(-c4ccc(S(C)(=O)=O)cc4)c3)n2)o1 [Compound 302]	0.102 to 0.959 µM
CC(C)(C)c1nnc(-c2cccc(C(=O)NCc3ccc(S(C)(=O)=O)cc3)n2)o1 [Compound 303]	> 1 µM and 1.03 to 10 µM
CC(C)NC(=O)c1cccc(C(=O)NCc2ccn(-c3ccc(S(C)(=O)=O)cc3)n2)n1 [Compound 309]	0.102 to 0.959 µM
CC(C)NC(=O)c1cccc(C(=O)NCc2ccnn2-c2ccc(S(C)(=O)=O)cc2)n1 [Compound 310]	> 1 µM and 1.03 to 10 µM
CS(=O)(=O)c1ccc(CNC(=O)c2cccc(-n3cccn3)n2)cc1 [Compound 314]	> 1 µM
CS(=O)(=O)c1ccc(CNC(=O)c2cccc(-n3ccc(C(F)(F)F)n3)n2)cc1 [Compound 315]	> 1 µM and 1.03 to 10 µM

Continued, values first:

IC50	Compound
0.102 to 0.959 µM	CC(C)NC(=O)c1cccc(C(=O)NCc2ccc(-c3cccc(Cl)c3)nc2)n1 [Compound 176]
0.102 to 0.959 µM	Cc1ccc(-c2ccc(CNC(=O)c3cccc(C(=O)NC(C)C)n3)cn2)cc1 [Compound 177]
0.102 to 0.959 µM	CC(C)NC(=O)c1cccc(C(=O)NCc2ccc(-c3cccc(C#N)c3)nc2)n1 [Compound 178]
0.102 to 0.959 µM	CC(C)NC(=O)c1cccc(C(=O)NCc2ccc(-c3ccc(C#N)cc3)nc2)n1 [Compound 179]
0.102 to 0.959 µM	CC(C)NC(=O)c1cccc(C(=O)NCc2ccc(-c3cccc(S(C)(=O)=O)c3)nc2)n1 [Compound 180]
0.102 to 0.959 µM	CC(C)NC(=O)c1cccc(C(=O)NCc2ccc(-c3ccc(S(C)(=O)=O)cc3)nc2)n1 [Compound 181]
0.102 to 0.959 µM	CC(C)NC(=O)c1cccc(C(=O)NCc2ccc(-c3ccc(Cl)cc3)nc2)n1 [Compound 182]
0.102 to 0.959 µM	CC(C)NC(=O)c1cccc(C(=O)NCc2ccc(-c3cccc(C(F)(F)F)c3)nc2)n1 [Compound 183]
0.102 to 0.959 µM	CC(C)NC(=O)c1cccc(C(=O)NCc2ccc(-c3ccc(F)c(Cl)c3)nc2)n1 [Compound 184]
0.102 to 0.959 µM	CC(C)NC(=O)c1cccc(C(=O)NCc2ccc(-c3cc(Cl)cc(Cl)c3)nc2)n1 [Compound 185]
0.102 to 0.959 µM	CC(C)NC(=O)c1cccc(C(=O)NCc2ccc(-c3ccc4ncccc4c3)nc2)n1 [Compound 186]
0.004 to 0.097 µM	CC(C)NC(=O)c1cccc(C(=O)NCc2cccc(-c3cccc(C#N)c3)c2)n1 [Compound 189]
0.102 to 0.959 µM	CC(C)NC(=O)c1cccc(C(=O)NCc2cccc(-c3ccc(C#N)cc3)c2)n1 [Compound 190]
0.004 to 0.097 µM	CC(C)NC(=O)c1cccc(C(=O)NCc2cccc(-c3cccc(S(C)(=O)=O)c3)c2)n1 [Compound 191]
0.004 to 0.097 µM	CC(C)NC(=O)c1cccc(C(=O)NCc2cccc(-c3ccc(S(C)(=O)=O)cc3)c2)n1 [Compound 192]
0.004 to 0.097 µM	CC(C)NC(=O)c1cccc(C(=O)NCc2ccc(-c3cccc(S(C)(=O)=O)c3)cc2)n1 [Compound 193]
0.102 to 0.959 µM	CC(C)NC(=O)c1cccc(C(=O)NCc2ccc(-c3cccc(C#N)c3)cc2)n1 [Compound 194]
0.102 to 0.959 µM	CC(C)NC(=O)c1cccc(C(=O)NCc2ccc(-c3ccc(C#N)cc3)cc2)n1 [Compound 195]
0.102 to 0.959 µM	CC(C)NC(=O)c1cccc(C(=O)NCc2ccc(-c3ccc(S(C)(=O)=O)cc3)cc2)n1 [Compound 196]
0.004 to 0.097 µM	CNc1nc2ccc(CNC(=O)c3cccc(C(=O)NC(C)C)n3)cc2s1 [Compound 200]

IC50	Compound
0.004 to 0.097 µM	CC(C)NC(=O)c1cccc(C(=O)NCc2ccc3nc(NC(C)C)sc3c2)n1 [Compound 201]
0.004 to 0.097 µM	CC(C)NC(=O)c1cccc(C(=O)NCc2ccc3nc(NCCN4CCOCC4)sc3c2)n1 [Compound 202]
0.004 to 0.097 µM	CNCCNc1nc2ccc(CNC(=O)c3cccc(C(=O)NC(C)C)n3)cc2s1 [Compound 203]
0.004 to 0.097 µM	CCOC(=O)Nc1nc2ccc(CNC(=O)c3cccc(C(=O)NC(C)C)n3)cc2s1 [Compound 205]
0.004 to 0.097 µM	CC(C)NC(=O)c1cccc(C(=O)NCc2ccc3nc(NC(=O)N(C)C)sc3c2)n1 [Compound 207]
0.004 to 0.097 µM	CC(C)NC(=O)c1cccc(C(=O)NCc2cnn(-c3ccc4nccn4c3)c2)n1 [Compound 210]
0.102 to 0.959 µM	CC(C)NC(=O)c1cccc(C(=O)NCc2cnn(-c3cnc4nccn4c3)c2)n1 [Compound 213]
0.004 to 0.097 µM	CC(C)NC(=O)c1cccc(C(=O)NCc2cnn(-c3ccc4cncnc4c3)c2)n1 [Compound 216]
0.004 to 0.097 µM	CC(C)NC(=O)c1cccc(C(=O)NCc2cnn(-c3cnc4[nH]cnc4c3)c2)n1 [Compound 219]
0.004 to 0.097 µM	CC(C)NC(=O)c1cccc(C(=O)NCc2cnn(-c3ccc(S(=O)(=O)N4CCN(C(=O)OC(C)(C)C)CC4)c(Cl)c3)c2)n1 [Compound 247]
0.102 to 0.959 µM	CC(C)NC(=O)c1cccc(C(=O)NCc2cncc(Br)c2)n1 [Compound 254]
0.004 to 0.097 µM	CC(C)NC(=O)c1cccc(C(=O)NCc2cncc(-c3ccc(S(C)(=O)=O)cc3)c2)n1 [Compound 255]
0.004 to 0.097 µM	CC(C)NC(=O)c1cccc(C(=O)NCc2cncc(-c3cccc(S(C)(=O)=O)c3)c2)n1 [Compound 256]
0.004 to 0.097 µM	CC(C)NC(=O)c1cccc(C(=O)NCc2cncc(-c3ccc(C#N)cc3)c2)n1 [Compound 257]
0.004 to 0.097 µM	CC(C)NC(=O)c1cccc(C(=O)NCc2cncc(-c3cccc(C#N)c3)c2)n1 [Compound 258]
0.102 to 0.959 µM	Nc1nc2ccc(CNC(=O)c3cccc(-n4cccn4)n3)cc2s1 [Compound 264]
0.102 to 0.959 µM	CS(=O)(=O)c1ccc(CNC(=O)c2cccc(C(=O)NC3CCN(c4ccccn4)CC3)n2)cc1 [Compound 273]
0.004 to 0.097 µM	CS(=O)(=O)c1ccc(-n2cc(CNC(=O)c3cccc(-n4cc(I)cn4)n3)cn2)cc1 [Compound 292]
0.004 to 0.097 µM	CS(=O)(=O)c1ccc(-n2cc(CNC(=O)c3cccc(-n4cc(-c5ccccn5)cn4)n3)cn2)cc1 [Compound 297]

Reference: patent US8278337B2, “Substituted pyridines that are JNK inhibitors” (Merck Sharp & Dohme, priority 2006, dated 2012)
